Laboratory results: US7501442B2, “Biphenyl compounds useful as muscarinic receptor antagonists” (Theravance, Inc., priority 2004, dated 2009)

What was measured:
[1] = biological target: T1, hM2 receptor (Homo sapiens, UniProt P08172); experiment: Blockade of agonist-mediated inhibition of cAMP accumulation; assay type: cell-based; conditions: CHO-K1 cells expressing the hM2 receptor; read-out: Ki value for blockade of oxotremorine-inhibition of forskolin-mediated cAMP accumulation
T1 construct: expressed in transfected cells; host or cells: CHO-K1 cells
T1 sequence (P08172 1-466): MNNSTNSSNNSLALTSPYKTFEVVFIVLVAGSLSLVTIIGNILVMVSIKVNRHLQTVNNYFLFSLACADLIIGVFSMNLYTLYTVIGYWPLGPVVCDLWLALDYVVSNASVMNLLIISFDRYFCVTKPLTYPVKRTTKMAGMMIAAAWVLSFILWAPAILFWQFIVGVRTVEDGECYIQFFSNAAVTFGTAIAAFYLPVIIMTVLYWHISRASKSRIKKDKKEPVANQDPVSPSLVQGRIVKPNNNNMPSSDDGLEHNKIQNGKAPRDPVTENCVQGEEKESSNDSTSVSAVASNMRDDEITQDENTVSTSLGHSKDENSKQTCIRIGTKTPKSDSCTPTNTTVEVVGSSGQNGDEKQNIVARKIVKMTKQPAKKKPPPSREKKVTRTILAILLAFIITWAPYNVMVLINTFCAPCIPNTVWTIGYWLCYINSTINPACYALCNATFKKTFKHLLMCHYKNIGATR
Description: A. Blockade of Agonist-Mediated Inhibition of cAMP Accumulation
In this assay, the functional potency of a test compound was determined by measuring the ability of the test compound to block oxotremorine-inhibition of forskolin-mediated cAMP accumulation in CHO-K1 cells expressing the hM2 receptor.
cAMP assays were performed in a radioimmunoassay format using the Flashplate Adenylyl Cyclase Activation Assay System with ^125I-cAMP (NEN SMP004B, PerkinElmer Life Sciences Inc., Boston, Mass.), according to the manufacturer's instructions.
Cells were rinsed once with dPBS and lifted with Trypsin-EDTA solution (0.05% trypsin/0.53 mM EDTA) as described in the Cell Culture and Membrane Preparation section above. […] The cell pellet was then re-suspended in 10 mL dPBS, and the cells were counted with a Coulter Z1 Dual Particle Counter (Beckman Coulter, Fullerton, Calif.). […]
Reactions were incubated for 10 minutes at 37° C. and stopped by addition of 100 μL ice-cold detection buffer. Plates were sealed, incubated overnight at room temperature and counted the next morning on a PerkinElmer TopCount liquid scintillation counter (PerkinElmer Inc., Wellesley, Mass.). The amount of cAMP produced (pmol/well) was calculated based on the counts observed for the samples and cAMP standards, as described in the manufacturer's user manual. […]

[2] = system: ACh-induced bronchoconstriction; experiment: Duration of bronchoprotection in guinea pig model of acetylcholine-induced bronchoconstriction; assay type: in vivo; conditions: inhalation, 1.5 hours post-dose
Description: Determination of Duration of Bronchoprotection in Guinea Pig Model of Acetylcholine-Induced Bronchoconstriction
Groups of six male guinea pigs (Duncan-Hartley (HsdPoc:DH) Harlan, Madison, Wis.) weighing between 250 and 350 g were individually identified by cage cards. Throughout the study animals were allowed access to food and water ad libitum.
Test compounds were administered via inhalation over 10 minutes in a whole-body exposure dosing chamber (R&S Molds, San Carlos, Calif.). The dosing chambers were arranged so that an aerosol was simultaneously delivered to 6 individual chambers from a central manifold. Guinea pigs were exposed to an aerosol of a test compound or vehicle (WFI). […] This was measured gravimetrically by comparing pre- and post-nebulization weights of the filled nebulizer.
The bronchoprotective effects of test compounds administered via inhalation were evaluated using whole body plethysmography at 1.5, 24, 48 and 72 hours post-dose.
Forty-five minutes prior to the start of the pulmonary evaluation, each guinea pig was anesthetized with an intramuscular injection of ketamine (43.75 mg/kg), xylazine (3.50 mg/kg) and acepromazine (1.05 mg/kg). […] The depth of anesthesia was monitored and adjusted if the animal responded to pinching of its paw or if the respiration rate was greater than 100 breaths/minute. […]

CN(CCN1CCC(OC(=O)Nc2ccccc2-c2ccccc2)CC1)C(=O)CCCCCNCCc1ccc(O)cc1 [Example 1, Biphenyl-2-ylcarbamic Acid 1-[2-({6-[2-(4-Hydroxyphenyl)ethylamino]hexanoyl}methylamino)ethyl]piperidin-4-yl Ester]
Ki [1]: < 10 nM
PD2(50) for ACh-induced bronchoconstriction [2]: less than 200 μg/mL
